From US8178688B2, “Benzamidine derivatives, process for the preparation thereof and pharmaceutical composition comprising the same” (Dong Wha Pharmaceutical Co., Ltd., priority 2004, dated 2012)
Like-named read-outs stand apart in the source and are kept apart here.

Tested on: osteoclast differentiation
Assay: Inhibitory effects on osteoclast differentiation (co-culture of bone marrow cells with osteoblast, TRAP staining)
Format: cell-based, mice
Conditions: for inhibition at 1 µM: Mus musculus, Osteoclast, 168 h, read-out: % inhibitory activity on osteoclastogenesis
Experimental: The effect of benzamidine derivatives of the present invention on osteoclast proliferation and differentiation process was evaluated via co-culture with osteoblast.
Tibia and Femora were aseptically ectomized from male ddY mice of 6-8 weeks to harvest bone marrow cells by using a syringe (21G, Korea Green Cross).
The bone marrow cells were suspended in 5 mL α-MEM medium (Gibco BRL Co.) containing sodium bicarbonate (2.0 g/L), streptomycin (100 mg/L) and penicillin ([…]). The harvested cells were centrifuged at 600×g for 5 mins to collect the whole quantity. To remove the red blood cells within bone marrow cells, 3 mL of Tris HCl (0.83% NH4Cl, pH7.5) was added and well mixed. After centrifuging above cells, the numbers of bone marrow cells were counted and then, the bone marrow cells were immediately used for co-culture system with osteoblast.
The calvaria were aseptically ectomized from neonate ICR mice of 1˜2 days, washed with PBS solution and incubated with a mixture of enzyme solution (0.2% collagenase and 0.1% dispase) at 37° C. gentle shaker. This procedure was sequentially repeated (10, 10, 10, 20, 20 and 20 mins), and then the calvaria cells having the characteristics of osteoblast mostly released from III-VI digestion groups were collected and washed with the medium (serum-free α-MEM). The washed cells were cultivated in α-MEM medium containing 10% FBS for 2˜3 days. After subculturing, these cells were used for this experiment, and diluted to reach the concentration of 1×10^6 cell/mL for storage at −70° C.
Benzamidine derivatives of the present invention were dissolved in a sterile distilled water or ethanol to make desired concentrations following dilution. The final volume of specimen added to the medium was determined at the ratio of 1:1000.
Bone marrow cells prepared, in the above and osteoblast from calvaria were co-cultured for osteoclast differentiation. Both bone marrow cells (25,000 cells/cm^2) and osteoblast (10,000 cells/cm^2) were plated on a 96 well plate in α-MEM medium containing FBS with specimen, and then cultured with test materials for 7 days. Differentiation factors, such as dexamethasone (10^−7M) and vitamin D3 (10^−8M), were also continuously added to the medium from the first day of cultivation. The medium was changed with fresh media containing a mixture of specimens and differentiation factors every 2˜3 day.
TRAP was used as a marker to measure osteoclast in consideration of its characteristics showing a positive reaction to TRAP staining solution. TRAP staining solution was prepared in a manner that 5 mg of naphtol AS-MS phosphate (sigma N-4875), a substrate and 25 mg of coloring agent (Fast Red Violet LB salt) were dissolved in N,N-dimethylformamide (about 0.5 mL), 0.1N NaHCO3 buffer solution (50 mL) containing 50 mM tartaric acid was added, and the reaction mixture was stored at refrigerator prior to use.
After culturing the cells for 7 days, the medium was removed from the wells, the cells were once washed with PBS solution and fixed to PBS containing 10% formalin for 2˜5 mins. The cells were fixed again in a mixed solution of ethanol and acetone (1/1) for about 1 min, and dried off. The cells were further treated by TRAP staining solution for 15 mins and washed with PBS. The experimental results were measured by counting the number of osteoclasts with 3 or more nuclei showing TRAP-positive reaction under a microscopic examination. Each of tests was confirmed over three times for gaining more reliable data.
As shown in the following table 7, the inhibitory effect of each experimental group on the differentiation of osteoclast versus controls was expressed by inhibitory percentage value.

[1] = 1 m, co-culture of bone marrow cells and osteoblast, 7 days, TRAP-positive osteoclasts versus controls
[2] = co-culture of bone marrow cells and osteoblast, 7 days, TRAP-positive osteoclasts versus controls
[3] = 1 μm, co-culture of bone marrow cells and osteoblast, 7 days, TRAP-positive osteoclasts versus controls

Compound	inhibition at 1 µM [1] [%]	other results
CCCN1CCC(c2nc(-c3ccc(OCCCCCOc4ccc(C(=N)NO)cc4)cc3)c(CC3CCCC3)s2)CC1 [Example 68, N-hydroxy-4-(5-[4-(5-cyclopentylmethyl-2-(1-propyl-piperidin-4-yl)-1,3-thiazol-4-yl)phenoxy]pentoxy)-benzamidine]		inhibition at 1 µM: 83%
N=C(N)Nc1nc(-c2ccc(OCCCCCOc3ccc(C(=N)NO)cc3)cc2)c(Cc2ccccc2)s1 [Example 66, N-hydroxy-4-(5-[4-(5-benzyl-2-guanidino-1,3-thiazol-4-yl)phenoxy]pentoxy)-benzamidine]	38.5	
CCNc1nc(-c2ccc(OCCCCCOc3ccc(C(=N)NO)cc3)cc2)c(C(C)C)s1 [Example 104, N-hydroxy-4-(5-[4-(2-ethylamino-5-isopropyl-1,3-thiazol-4-yl)phenoxy]pentoxy)-benzamidine]	40	
CCNc1nc(-c2ccc(OCCCCCOc3ccc(C(=N)NO)cc3)cc2)cs1 [Example 84, N-hydroxy-4-(5-[4-(2-ethylamino-1,3-thiazol-4-yl)phenoxy]pentoxy)-benzamidine]	100	
CC(C)c1sc(N(C)C)nc1-c1ccc(OCCCCCOc2ccc(C(=N)NO)cc2)cc1 [Example 161, N-hydroxy-4-(5-[4-(5-isopropyl-2-dimethylamino-1,3-thiazol-4-yl)phenoxy]pentoxy)-benzamidine]	89.1	
CCCCc1sc(C(C)C)nc1-c1ccc(OCc2ccc(COc3ccc(C(=N)NO)cc3)cc2)cc1 [Example 202, N-hydroxy-4-(4-[4-(5-butyl-2-isopropyl-thiazol-4-yl)-phenoxymethyl]-benzyloxy)-benzamidine]	85.6	
CCc1sc(N(Cc2cccnc2)Cc2cccnc2)nc1-c1ccc(OCCCCCOc2ccc(C(=N)NO)cc2)cc1 [Example 137]		% inhibitory activity on osteoclastogenesis [2]: 62.7%
CCN(CC)c1nc(-c2ccc(OCCCCCOc3ccc(C(=N)NO)cc3)cc2)c(C2CCCC2)s1 [Example 156, N-hydroxy-4-(5-[4-(5-cyclopentyl-2-diethylamino-1,3-thiazol-4-yl)phenoxy]pentoxy)-benzamidine]	15.6	
CN(CCN1CCOCC1)c1nc(-c2ccc(OCCCCCOc3ccc(C(=N)NO)cc3)cc2)c(CC2CCCC2)s1 [Example 148, N-hydroxy-4-(5-[4-(5-cyclopentylmethyl-2-(methyl-(2-morpholinoethyl)amino)-1,3-thiazol-4-yl)phenoxy]pentoxy)-benzamidine]	90.1	
CCCNc1nc(-c2ccc(OCCCCCOc3ccc(C(=N)NO)cc3)cc2)c(C2CCCC2)s1 [Example 113, N-hydroxy-4-(5-[4-(5-cyclopentyl-2-propylamino-1,3-thiazol-4-yl)phenoxy]pentoxy)-benzamidine]	86.7	
N=C(NO)c1ccc(OCCCCCOc2ccc(-c3nc(-c4cccnc4)sc3CCCl)cc2)cc1 [Example 80, N-hydroxy-4-(5-[4-(5-(2-chloroethyl)-2-(pyridin-3-yl)-1,3-thiazol-4-yl)phenoxy]pentoxy)-benzamidine]	96.4	
Cc1sc(C(C)C)nc1-c1ccc(OCCCCCOc2ccc(C(=N)N)cc2)cc1 [Example 2, 4-(5-[4-(2-isopropyl-5-methyl-1,3-thiazol-4-yl)phenoxy]pentoxy)-benzamidine]		inhibition at 1 µM [3]: 78.4%
Cc1nc(-c2ccc(OCCNCCOc3ccc(C(=N)NO)cc3)cc2)c(C(C)C)s1 [Example 186, N-hydroxy-4-(2-[2-(4-(5-isopropyl-2-methyl-1,3-thiazol-4-yl)phenoxy)-ethylamino]-ethoxy)-benzamidine]	71	
N=C(NO)c1ccc(OCCCCCOc2ccc(-c3nc(N4CCOCC4)sc3C3CCCC3)cc2)cc1 [Example 172, N-hydroxy-4-(5-[4-(5-cyclopentyl-2-morpholin-4-yl-1,3-thiazol-4-yl)phenoxy]pentoxy)-benzamidine]	87.8	
N=C(NO)c1ccc(OCCCCCOc2ccc(-c3csc(N4CCOCC4)n3)cc2)cc1 [Example 175, N-hydroxy-4-(5-[4-(2-morpholin-4-yl-1,3-thiazol-4-yl)phenoxy]pentoxy)-benzamidine]	61.9	
Cc1sc(C(C)C)nc1-c1ccc(OCCCCCOc2ccc(C(=N)NO)cc2)cc1 [Example 1, N-hydroxy-4-(5-[4-(2-isopropyl-5-methyl-1,3-thiazol-4-yl)phenoxy]pentoxy)-benzamidine]		inhibition at 1 µM [3]: 87%
CCc1sc(N)nc1-c1ccc(OCCCCCOc2ccc(C(=N)NO)cc2)cc1 [Example 60, N-hydroxy-4-(5-[4-(2-amino-5-ethyl-1,3-thiazol-4-yl)phenoxy]pentoxy)-benzamidine]		inhibition at 1 µM [3]: 28.2%
Cc1nc(-c2ccc(OCCCCC(=O)Nc3ccc(C(=N)NO)cc3)cc2)c(C(C)C)s1 [Example 182, N-hydroxy-4-(5-[4-(5-isopropyl-2-methyl-1,3-thiazol-4-yl)-phenoxy]-pentanoyl-amino)-benzamidine]	81.1	
CNc1nc(-c2ccc(OCCCCCOc3ccc(C(=N)NO)cc3)cc2)cs1 [Example 116, N-hydroxy-4-(5-[4-(2-methylamino-1,3-thiazol-4-yl)phenoxy]pentoxy)-benzamidine]	51.3	
CCCCc1sc(NC)nc1-c1ccc(OCCCCCOc2ccc(C(=N)NO)cc2)cc1 [Example 105, N-hydroxy-4-(5-[4-(5-butyl-2-methylamino-1,3-thiazol-4-yl)phenoxy]pentoxy)-benzamidine]	61.1	
CCc1sc(N(C)CCO)nc1-c1ccc(OCCCCOc2ccc(C(=N)NO)cc2)cc1 [Example 198, N-hydroxy-4-(4-[4-(5-ethyl-2-[(2-hydroxyethyl)-methyl-amino]-thiazol-4-yl)phenoxy]butoxy)-benzamidine]	36.9	
Cc1nc(-c2ccc(OCCCCCOc3ccc(C(=N)NO)cc3)cc2)c(CO)s1 [Example 75, N-hydroxy-4-(5-[4-(5-hydroxymethyl-2-methyl-1,3-thiazol-4-yl)phenoxy]pentoxy)-benzamidine]	40.2	
CCCc1sc(C)nc1-c1ccc(OCCCCCOc2ccc(C(=N)NO)cc2)cc1 [Example 29, N-hydroxy-4-(5-[4-(2-methyl-5-propyl-1,3-thiazol-4-yl)phenoxy]pentoxy)-benzamidine]		inhibition at 1 µM [3]: 96.3%
COc1cc(C(=N)NO)ccc1OCCCCCOc1ccc(-c2nc(C)sc2C(C)C)cc1 [Example 189, N-hydroxy-4-(5-[4-(5-isopropyl-2-methyl-1,3-thiazol-4-yl)-phenoxy]-pentoxy-3-methoxy)-benzamidine]		% inhibitory activity on osteoclastogenesis [2]: 38.7%
CCc1sc(C(C)C)nc1-c1ccc(OCCCCCOc2ccc(C(=N)N)cc2)cc1 [Example 55, 4-(5-[4-(5-ethyl-2-isopropyl-1,3-thiazol-4-yl)phenoxy]pentoxy)-benzamidine]		inhibition at 1 µM [3]: 67.8%
Cc1sc(NC(=O)c2cccnc2)nc1-c1ccc(OCCCCCOc2ccc(C(=N)NO)cc2)cc1 [Example 92, N-hydroxy-4-(5-[4-(5-methyl-2-(3-pyridylcarbonyl)amino-1,3-thiazol-4-yl)phenoxy]pentoxy)-benzamidine]	49	
Cc1nc(-c2ccc(OCCCCOc3ccc(C(=N)NO)c(F)c3)cc2)c(C(C)C)s1 [Example 207, N-hydroxy-2-fluoro-4-(5-[4-(5-isopropyl-2-methyl-thiazol-4-yl)-phenoxy]-butoxy)-benzamidine]		% inhibitory activity on osteoclastogenesis [2]: 14.4%
N=C(NO)c1ccc(OCCCCCOc2ccc(-c3nc(N)sc3Cc3ccccc3)cc2)cc1 [Example 65, N-hydroxy-4-(5-[4-(2-amino-5-benzyl-1,3-thiazol-4-yl)phenoxy]pentoxy)-benzamidine]	46	
Cc1nc(-c2ccc(OCCCCCCOc3ccc(C(=N)NO)cc3)cc2)c(C(C)C)s1 [Example 211, N-hydroxy-4-(6-[4-(5-isopropyl-2-methyl-thiazol-4-yl)phenoxy]-hexyloxy)-benzamidine]	44	
